Assays:
[1] = Absorption of carbon dioxide into amine compound: percentage increase of mass; format: physicochemical; conditions: amine left to stand in air at 23° C. and 50% RH for a week
Method: An amine compound, MXDA (40 mmol), was put in a container and left to stand in an air environment at 23° C. and 50% RH for a week. By doing so MXDA and carbon dioxide in the air were reacted to give a carbonate of MXDA. At that stage, to suppress uneven reaction, the container in which the amine compound was placed was shaken as necessary so as not to leave unreacted MXDA.
Next, increase of the mass of MXDA was measured and the percentage increase of the mass of the amine compound was calculated by the following equation.
Percentage increase of mass of amine compound [% by mass]=100×amount of increase of mass of amine compound (g)/(initial mass of amine compound (g)+amount of increase of mass of amine compound (g))

[2] = Maximum endothermic temperature of amine compound (DSC); format: physicochemical; conditions: DSC 23 to 350° C., 10° C./minute, nitrogen; evaporation of the amine compound
Method: The amine compound (a1) is heated at a heating rate of 10° C./minute from 23° C. to 350° C. and the temperature at which the amount of heat absorbed due to evaporation of the amine compound (a1) reaches the maximum is measured, and the temperature is defined as the maximum endothermic temperature of the amine compound (a1).
The maximum endothermic temperature of the amine compound was measured by subjecting the amine compound to DSC as described below. First, differential scanning calorimetry of the amine compound was performed under conditions of a temperature range of 23 to 350° C., a heating rate of 10° C./minute and a nitrogen atmosphere using a differential thermogravimeter (product name DTG-60 made by Shimadzu Corporation). The temperature at which the amount of heat absorbed due to the evaporation of the amine compound was the maximum was calculated from the DSC curve obtained, and the temperature was determined as the maximum endothermic temperature of the amine compound.

[3] = Amine value of amine compound (JIS K7237-1995 titration); format: physicochemical; conditions: 0.1 N perchloric acid-acetic acid titration
Method: The amine value was measured by the following measurement method according to JIS K7237-1995. • (1) 0.1 g of the amine compound was dissolved in 20 mL of acetic acid. • (2) The amine value was calculated by titrating the solution prepared in (1) above with 0.1 N perchloric acid-acetic acid solution using an automatic potentiometric titrator (AT-610 made by Kyoto Electronics Manufacturing Co., Ltd.) (Acid Dissociation Constant (pKa) of Amine Compound)

[4] = Maximum carbon dioxide (CO2) release temperature of amine compound (DSC); format: physicochemical; conditions: amine left in air at 23° C., 50% RH for 24 hours; DSC 23 to 250° C., 10° C./minute, nitrogen
Method: The amine compound (a1) with carbon dioxide absorbed is heated at a heating rate of 10° C./minute from 23° C. to 250° C., and the temperature at which the amount of heat absorbed due to desorption of carbon dioxide reaches the maximum is measured, and the temperature is defined as the maximum carbon dioxide release temperature. In this regard the amine compound (a1) with carbon dioxide absorbed may be prepared by leaving 5 mmol of the amine compound (a1) to stand in air at 23° C. and 50% RH for 24 hours.
A carbon dioxide detector and a Petri dish were placed in an openable desiccator (inner dimension: 370 mm×260 mm×272 mm). Subsequently the amine compound (5 mmol) was added to the Petri dish in the desiccator and the door was immediately closed to leave the amine compound to stand in the desiccator in an air environment at 23° C. and 50% RH for 24 hours. The initial concentration of carbon dioxide was adjusted to about 400 ppm.
Then the amine compound was removed from the desiccator to give an amine compound with carbon dioxide absorbed. The maximum carbon dioxide release temperature of the amine compound with carbon dioxide absorbed was measured by subjecting the amine compound to DSC as described below. First, differential scanning calorimetry of the amine compound was performed under conditions of a temperature range of 23 to 250° C., a heating rate of 10° C./minute and a nitrogen atmosphere using a differential thermogravimeter (product name DTG-60 made by Shimadzu Corporation). The temperature at which the amount of heat absorbed due to the desorption of carbon dioxide was the maximum was calculated from the DSC curve obtained, and the temperature was determined as the maximum carbon dioxide release temperature of the amine compound.

[5] = Acid dissociation constant (pKa) of amine compound, acid-base titration; conditions: purified water
Method: (§1) The acid dissociation constant of the amine compound (a1) is measured by the following measurement method based on acid-base titration. • (1) 0.2 g of the amine compound (a1) is dissolved in 30 mL of purified water. • (2) The acid dissociation constant (pKa) is calculated by titrating the solution prepared in (1) above with 0.1 N perchloric acid-acetic acid solution using an automatic potentiometric titrator (e.g., AT-610 made by Kyoto Electronics Manufacturing Co., Ltd.).
(§2) The acid dissociation constant of the amine compound was measured by the following measurement method. • (1) 0.2 g of the amine compound was dissolved in 30 mL of purified water. • (2) The acid dissociation constant (pKa) was calculated by titrating the solution prepared in (1) above with 0.1 N perchloric acid-acetic acid solution using an automatic potentiometric titrator (AT-610 made by Kyoto Electronics Manufacturing Co., Ltd.).
(§3) The temperature in the measurement was 25±2° C.

Method for physchem: as §1, §2, §3

Row | Compound | Percentage increase of mass [1] [% by mass] | Maximum endothermic temperature [2] [°C] | Amine value [3] [mg KOH/g] | Maximum CO2 release temperature [4] [°C] | pKa [5] | pKa (physchem)
1 | NCCN1CCNCC1 [AEP, N-(2-aminoethyl)piperazine] | 43.7 | 140.2 | 1303 | 81.9 | 8.9 | 
2 | CC1(C)CC(N)CC(C)(CN)C1 (centres unmarked) [IPDA, isophoronediamine] | 23.5 | 168.8 | 659 | 114.4 | 10.4 | 
3 | NC1CCC(CC2CCC(N)CC2)CC1 (centres unmarked) [PACM, 4,4′-methylenebis(cyclohexylamine)] | 12.2 | 218.5 | 533 | 53.0 |  | 10.3

Second part, led by results:

Row | Percentage increase of mass [1] [% by mass] | Maximum endothermic temperature [2] [°C] | Amine value [3] [mg KOH/g] | Maximum CO2 release temperature [4] [°C] | pKa [5] | Compound | pKa (physchem)
4 | 25.9 | 160.9 | 789 | 125.7 |  | NCC1CCCC(CN)C1 (centres unmarked) [1,3-BAC, 1,3-bis(aminomethyl)cyclohexane] | 
5 | 24.1 | 183.5 | 824 | 135.5 |  | NCc1cccc(CN)c1 [MXDA, metaxylylenediamine] | 
